Test results: PubChem BioAssay (NCI)
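Step 1: Grow cells in 96-well plates. Step 2: Expose to compound for 48 hours at 5 concentrations. Step 3: Interpolate endpoints linearly; if unreached, use highest concentration. TGI denotes the concentration required for complete inhibition of growth.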

Columns and labels:
Assay in all cases: NCI-60 cell line screen, 48 h
SNB-75 CNS = tested on: SNB-75 CNS
SK-MEL-28 melanoma = tested on: SK-MEL-28 melanoma
A498 renal = tested on: A498 renal
OVCAR-5 ovarian = tested on: OVCAR-5 ovarian
UO-31 renal = tested on: UO-31 renal
KM12 colon = tested on: KM12 colon
SW-620 colon = tested on: SW-620 colon
DU-145 prostate = tested on: DU-145 prostate
OVCAR-4 ovarian = tested on: OVCAR-4 ovarian
T-47D breast = tested on: T-47D breast
HCC-2998 colon = tested on: HCC-2998 colon
SR leukemia = tested on: SR leukemia
HCT-15 colon = tested on: HCT-15 colon
ACHN renal = tested on: ACHN renal
NCI-H460 lung = tested on: NCI-H460 lung
HCT-116 colon = tested on: HCT-116 colon
K-562 leukemia = tested on: K-562 leukemia
SF-295 CNS = tested on: SF-295 CNS
NCI/ADR-RES ovarian = tested on: NCI/ADR-RES ovarian
SNB-19 CNS = tested on: SNB-19 CNS
HOP-62 NSCLC = tested on: HOP-62 NSCLC
RXF 393 renal = tested on: RXF 393 renal
HL-60(TB) leukemia = tested on: HL-60(TB) leukemia
MDA-MB-231 breast = tested on: MDA-MB-231 breast
MALME-3M melanoma = tested on: MALME-3M melanoma
SF-539 CNS = tested on: SF-539 CNS
COLO 205 colon = tested on: COLO 205 colon
SK-OV-3 ovarian = tested on: SK-OV-3 ovarian
CAKI-1 renal = tested on: CAKI-1 renal
PC-3 prostate = tested on: PC-3 prostate
A549 NSCLC = tested on: A549 NSCLC
NCI-H226 lung = tested on: NCI-H226 lung
OVCAR-8 ovarian = tested on: OVCAR-8 ovarian
M14 melanoma = tested on: M14 melanoma
IGROV1 ovarian = tested on: IGROV1 ovarian
MDA-MB-435 = tested on: MDA-MB-435
HOP-92 NSCLC = tested on: HOP-92 NSCLC
U251 CNS = tested on: U251 CNS
NCI-H23 lung = tested on: NCI-H23 lung
RPMI-8226 leukemia = tested on: RPMI-8226 leukemia
NCI-H522 lung = tested on: NCI-H522 lung
EKVX NSCLC = tested on: EKVX NSCLC
TK-10 renal = tested on: TK-10 renal
BT-549 breast = tested on: BT-549 breast
UACC-62 melanoma = tested on: UACC-62 melanoma
SF-268 CNS = tested on: SF-268 CNS
SK-MEL-2 melanoma = tested on: SK-MEL-2 melanoma
OVCAR-3 ovarian = tested on: OVCAR-3 ovarian
786-0 renal = tested on: 786-0 renal
UACC-257 melanoma = tested on: UACC-257 melanoma
SN12C renal = tested on: SN12C renal
SK-MEL-5 melanoma = tested on: SK-MEL-5 melanoma
MOLT-4 leukemia = tested on: MOLT-4 leukemia
MCF7 breast = tested on: MCF7 breast
HT29 colon = tested on: HT29 colon

Question: For `N#Cc1c(-c2ccc(Cl)cc2)cc(-c2ccc(Nc3ccnc4cc(Cl)ccc34)cc2)nc1N`, which TGI (SNB-75 CNS) is on record?
Answer: > 100 µM

Question: What about the TGI (SK-MEL-28 melanoma) of the same compound?
Answer: > 100 µM

Question: And the TGI (A498 renal)?
Answer: > 100 µM

Question: And the TGI (OVCAR-5 ovarian)?
Answer: > 100 µM

Question: What about the TGI (UO-31 renal) of the same compound?
Answer: > 100 µM

Question: And the TGI (KM12 colon)?
Answer: > 100 µM

Question: And the TGI (SW-620 colon)?
Answer: > 100 µM

Question: And the TGI (DU-145 prostate)?
Answer: > 100 µM

Question: And the TGI (OVCAR-4 ovarian)?
Answer: > 100 µM

Question: What about the TGI (T-47D breast) of the same compound?
Answer: > 100 µM

Question: And the TGI (HCC-2998 colon)?
Answer: > 100 µM

Question: What about the TGI (SR leukemia) of the same compound?
Answer: > 100 µM

Question: What about the TGI (HCT-15 colon) of the same compound?
Answer: > 100 µM

Question: And the TGI (ACHN renal)?
Answer: > 100 µM

Question: And the TGI (NCI-H460 lung)?
Answer: > 100 µM

Question: What about the TGI (HCT-116 colon) of the same compound?
Answer: > 100 µM

Question: And the TGI (K-562 leukemia)?
Answer: > 100 µM

Question: And the TGI (SF-295 CNS)?
Answer: > 100 µM

Question: What about the TGI (NCI/ADR-RES ovarian) of the same compound?
Answer: > 100 µM

Question: And the TGI (SNB-19 CNS)?
Answer: > 100 µM

Question: What about the TGI (HOP-62 NSCLC) of the same compound?
Answer: > 100 µM

Question: And the TGI (RXF 393 renal)?
Answer: > 100 µM

Question: What about the TGI (HL-60(TB) leukemia) of the same compound?
Answer: > 100 µM

Question: And the TGI (MDA-MB-231 breast)?
Answer: > 100 µM

Question: And the TGI (MALME-3M melanoma)?
Answer: > 100 µM

Question: And the TGI (SF-539 CNS)?
Answer: > 100 µM

Question: What about the TGI (COLO 205 colon) of the same compound?
Answer: > 100 µM

Question: And the TGI (SK-OV-3 ovarian)?
Answer: > 100 µM

Question: And the TGI (CAKI-1 renal)?
Answer: > 100 µM

Question: What about the TGI (PC-3 prostate) of the same compound?
Answer: > 100 µM

Question: What about the TGI (A549 NSCLC) of the same compound?
Answer: > 100 µM

Question: What about the TGI (NCI-H226 lung) of the same compound?
Answer: > 100 µM

Question: What about the TGI (OVCAR-8 ovarian) of the same compound?
Answer: > 100 µM

Question: And the TGI (M14 melanoma)?
Answer: > 100 µM

Question: And the TGI (IGROV1 ovarian)?
Answer: > 100 µM

Question: What about the TGI (MDA-MB-435) of the same compound?
Answer: > 100 µM

Question: What about the TGI (HOP-92 NSCLC) of the same compound?
Answer: > 100 µM

Question: What about the TGI (U251 CNS) of the same compound?
Answer: > 100 µM

Question: And the TGI (NCI-H23 lung)?
Answer: > 100 µM

Question: And the TGI (RPMI-8226 leukemia)?
Answer: > 100 µM

Question: And the TGI (NCI-H522 lung)?
Answer: > 100 µM

Question: And the TGI (EKVX NSCLC)?
Answer: > 100 µM

Question: And the TGI (TK-10 renal)?
Answer: > 100 µM

Question: And the TGI (BT-549 breast)?
Answer: > 100 µM

Question: What about the TGI (UACC-62 melanoma) of the same compound?
Answer: > 100 µM

Question: And the TGI (SF-268 CNS)?
Answer: > 100 µM

Question: What about the TGI (SK-MEL-2 melanoma) of the same compound?
Answer: > 100 µM

Question: And the TGI (OVCAR-3 ovarian)?
Answer: > 100 µM

Question: What about the TGI (786-0 renal) of the same compound?
Answer: > 100 µM

Question: `O=[N+]([O-])c1ccc(OCc2nnc(CCCCCCCCc3nnc(COc4ccc([N+](=O)[O-])cc4)o3)o2)cc1` was tested. Which TGI (SNB-75 CNS) did it give?
Answer: > 100 µM

Question: And the TGI (SK-MEL-28 melanoma)?
Answer: > 100 µM

Question: And the TGI (A498 renal)?
Answer: > 100 µM

Question: What about the TGI (OVCAR-5 ovarian) of the same compound?
Answer: > 100 µM

Question: What about the TGI (UO-31 renal) of the same compound?
Answer: > 100 µM

Question: And the TGI (KM12 colon)?
Answer: > 100 µM

Question: What about the TGI (SW-620 colon) of the same compound?
Answer: > 100 µM

Question: What about the TGI (DU-145 prostate) of the same compound?
Answer: > 100 µM

Question: What about the TGI (OVCAR-4 ovarian) of the same compound?
Answer: > 100 µM

Question: And the TGI (UACC-257 melanoma)?
Answer: > 100 µM

Question: And the TGI (SN12C renal)?
Answer: > 100 µM

Question: What about the TGI (HCC-2998 colon) of the same compound?
Answer: > 100 µM

Question: What about the TGI (HCT-15 colon) of the same compound?
Answer: > 100 µM

Question: What about the TGI (ACHN renal) of the same compound?
Answer: > 100 µM

Question: What about the TGI (NCI-H460 lung) of the same compound?
Answer: > 100 µM

Question: What about the TGI (HCT-116 colon) of the same compound?
Answer: > 100 µM

Question: What about the TGI (K-562 leukemia) of the same compound?
Answer: > 100 µM

Question: And the TGI (SF-295 CNS)?
Answer: > 100 µM

Question: And the TGI (NCI/ADR-RES ovarian)?
Answer: > 100 µM

Question: And the TGI (SNB-19 CNS)?
Answer: > 100 µM

Question: And the TGI (RXF 393 renal)?
Answer: 83.3 µM

Question: What about the TGI (MDA-MB-231 breast) of the same compound?
Answer: > 100 µM

Question: What about the TGI (MALME-3M melanoma) of the same compound?
Answer: > 100 µM

Question: And the TGI (SK-MEL-5 melanoma)?
Answer: > 100 µM

Question: And the TGI (COLO 205 colon)?
Answer: > 100 µM

Question: And the TGI (MOLT-4 leukemia)?
Answer: > 100 µM

Question: And the TGI (SK-OV-3 ovarian)?
Answer: > 100 µM

Question: What about the TGI (PC-3 prostate) of the same compound?
Answer: > 100 µM

Question: And the TGI (A549 NSCLC)?
Answer: > 100 µM

Question: What about the TGI (NCI-H226 lung) of the same compound?
Answer: > 100 µM

Question: And the TGI (MCF7 breast)?
Answer: > 100 µM

Question: And the TGI (M14 melanoma)?
Answer: > 100 µM

Question: What about the TGI (IGROV1 ovarian) of the same compound?
Answer: > 100 µM

Question: What about the TGI (MDA-MB-435) of the same compound?
Answer: > 100 µM

Question: And the TGI (HOP-92 NSCLC)?
Answer: > 100 µM

Question: And the TGI (U251 CNS)?
Answer: > 100 µM

Question: What about the TGI (NCI-H23 lung) of the same compound?
Answer: > 100 µM

Question: And the TGI (RPMI-8226 leukemia)?
Answer: > 100 µM

Question: What about the TGI (NCI-H522 lung) of the same compound?
Answer: > 100 µM

Question: What about the TGI (HT29 colon) of the same compound?
Answer: > 100 µM

Question: What about the TGI (EKVX NSCLC) of the same compound?
Answer: > 100 µM

Question: What about the TGI (TK-10 renal) of the same compound?
Answer: > 100 µM

Question: And the TGI (BT-549 breast)?
Answer: > 100 µM

Question: And the TGI (UACC-62 melanoma)?
Answer: > 100 µM

Question: What about the TGI (SF-268 CNS) of the same compound?
Answer: > 100 µM

Question: What about the TGI (SK-MEL-2 melanoma) of the same compound?
Answer: > 100 µM

Question: What about the TGI (OVCAR-3 ovarian) of the same compound?
Answer: > 100 µM

Question: And the TGI (786-0 renal)?
Answer: > 100 µM
